Columns and labels:
corn = assay: Test C pre-/postemergence test; assay type: in vivo, Zea mays
How it was run: (§1)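 Compounds in a non-phytotoxic solvent with surfactant applied preemergence to seeded pots and, at the same time, postemergence to plants 2–18 cm tall (1- to 4-leaf stage). Paddy tests: pots flooded to 3 cm, compound applied into the water, depth held throughout.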

blackgrass = assay: Test C pre-/postemergence test; assay type: in vivo, Alopecurus myosuroides
How it was run: as §1

wheat = assay: Test C pre-/postemergence test; assay type: in vivo, Triticum aestivum
How it was run: as §1

[1] = system: common (oilseed) sunflower; assay: Test C pre-/postemergence test; assay type: in vivo, Helianthus annuus
How it was run: as §1

Italian ryegrass = assay: Test C pre-/postemergence test; assay type: in vivo, Lolium multiflorum
How it was run: as §1

crabgrass = assay: Test A pre-/postemergence greenhouse test; assay type: in vivo, Digitaria sanguinalis; conditions: for Plant response rating, Crabgrass, Large: 0 to 100 scale where 0 is no effect and 100 is complete control; for Crabgrass, Large plant response rating: 0 to 100 scale
How it was run: (§2)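 Untreated controls served as the reference for visual injury ratings taken about ten days after spraying. The non-phytotoxic solvent/surfactant formulation was applied preemergence to seeded loam and sand and postemergence to plants two to ten cm high.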

morningglory = assay: Test A pre-/postemergence greenhouse test; assay type: in vivo, Ipomoea spp.; conditions: for Plant response rating, Morningglory: 0 to 100 scale where 0 is no effect and 100 is complete control; for Morningglory plant response rating: 0 to 100 scale
How it was run: as §2

woolly cupgrass = assay: Test C pre-/postemergence test; assay type: in vivo, Eriochloa villosa
How it was run: as §1

Goosegrass = assay: Test C pre-/postemergence test; assay type: in vivo, Eleusin indica
How it was run: as §1

green foxtail = assay: Test C pre-/postemergence test; assay type: in vivo, Setaria viridis
How it was run: as §1

eastern black nightshade = assay: Test C pre-/postemergence test; assay type: in vivo, Solanum ptycanthum
How it was run: as §1

umbrella sedge = assay: Test C flooded paddy test; assay type: in vivo, Cyperus difformis; conditions: Flood
How it was run: (§3)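 Ratings were visual and made relative to untreated controls after 13 to 15 greenhouse days.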

duck salad = assay: Test C flooded paddy test; assay type: in vivo, Heteranthera limosa; conditions: Flood
How it was run: as §3

common ragweed = assay: Test C pre-/postemergence test; assay type: in vivo, Ambrosia elation
How it was run: as §1

wild oat = assay: Test C pre-/postemergence test; assay type: in vivo, Avena fatua
How it was run: as §1

yellow nutsedge = assay: Test C pre-/postemergence test; assay type: in vivo, Cyperus esculentus
How it was run: as §1

redroot pigweed = assay: Test A pre-/postemergence greenhouse test; assay type: in vivo, Amaranthus retroflexus; conditions: for Plant response rating, Pigweed: 0 to 100 scale where 0 is no effect and 100 is complete control; for Pigweed plant response rating: 0 to 100 scale
How it was run: as §2

[2] = 62 g ai/ha, Preemergence, scale 0 to 100
[3] = 125 g ai/ha, preemergence, scale 0 (no effect) to 100 (complete control)
[4] = Postemergence, 125 g ai/ha, scale 0 to 100, 0 no effect, 100 complete control
[5] = Postemergence, 250 g ai/ha, scale 0 to 100, 0 no effect, 100 complete control
[6] = Preemergence, 31 g ai/ha, scale 0 to 100 (0 no effect, 100 complete control)
[7] = preemergence, 250 g ai/ha, scale 0 (no effect) to 100 (complete control)
[8] = Postemergence, 500 g ai/ha, 0 is no effect, 100 is complete control
[9] = Preemergence, 125 g ai/ha, 0 no effect, 100 complete control
[10] = 62 g ai/ha, scale 0 to 100 (0 no effect, 100 complete control)
[11] = 250 g ai/ha, scale 0 to 100, 0 no effect, 100 complete control, 13 to 15 days

Cn1nc(C(F)(F)C(F)(F)F)c(C[S+]([O-])c2cccc[n+]2[O-])c1OCC(F)(F)F (centres unmarked) [Compound 79]
Corn plant response rating (corn; [2]): 100
Corn plant response rating (corn; [3]): 100
Plant response rating (0 to 100), Corn (corn; Postemergence, 31 g ai/ha): 0
Plant response rating (0 to 100), Corn (corn; Postemergence, 62 g ai/ha): 25
Plant response rating, Corn (corn; [4]): 60
Plant response rating, Corn (corn; [5]): 60
Plant response rating, Corn (corn; [6]): 60
Corn plant response rating (corn; [7]): 100
Blackgrass plant response rating (blackgrass; [2]): 100
Blackgrass plant response rating (blackgrass; [3]): 100
Plant response rating (0 to 100), Blackgrass (blackgrass; Postemergence, 31 g ai/ha): 70
Plant response rating (0 to 100), Blackgrass (blackgrass; Postemergence, 62 g ai/ha): 80
Plant response rating, Blackgrass (blackgrass; [4]): 90
Plant response rating, Blackgrass (blackgrass; [5]): 90
Plant response rating, Blackgrass (blackgrass; [6]): 98
Blackgrass plant response rating (blackgrass; [7]): 100
Wheat plant response rating (wheat; [2]): 10
Wheat plant response rating (wheat; [3]): 60
Plant response rating (0 to 100), Wheat (wheat; Postemergence, 31 g ai/ha): 0
Plant response rating (0 to 100), Wheat (wheat; Postemergence, 62 g ai/ha): 30
Plant response rating, Wheat (wheat; [4]): 60
Plant response rating, Wheat (wheat; [5]): 80
Plant response rating, Wheat (wheat; [6]): 10
Wheat plant response rating (wheat; [7]): 80
Sunflower plant response rating [1, 2]: 60
Sunflower plant response rating [1, 3]: 100
Plant response rating, Sunflower [1, 6]: 40
Sunflower plant response rating [1, 7]: 100
Ryegrass, Italian plant response rating (Italian ryegrass; [2]): 60
Ryegrass, Italian plant response rating (Italian ryegrass; [3]): 100
Plant response rating (0 to 100), Ryegrass, Italian (Italian ryegrass; Postemergence, 31 g ai/ha): 0
Plant response rating (0 to 100), Ryegrass, Italian (Italian ryegrass; Postemergence, 62 g ai/ha): 40
Plant response rating, Ryegrass, Italian (Italian ryegrass; [4]): 60
Plant response rating, Ryegrass, Italian (Italian ryegrass; [5]): 100
Plant response rating, Ryegrass, Italian (Italian ryegrass; [6]): 40
Ryegrass, Italian plant response rating (Italian ryegrass; [7]): 100
Plant response rating, Crabgrass, Large (crabgrass; Postemergence, 125 g ai/ha): 70
Crabgrass, Large plant response rating (crabgrass; [8]): 90
Crabgrass, Large plant response rating (crabgrass; [9]): 70
Plant response rating, Crabgrass, Large (crabgrass; Preemergence, 500 g ai/ha): 100
Plant response rating, Morningglory (morningglory; Postemergence, 125 g ai/ha): 50
Morningglory plant response rating (morningglory; [8]): 100
Morningglory plant response rating (morningglory; [9]): 60
Plant response rating, Morningglory (morningglory; Preemergence, 500 g ai/ha): 90
Cupgrass, Woolly plant response rating (woolly cupgrass; [2]): 50
Cupgrass, Woolly plant response rating (woolly cupgrass; [3]): 98
Plant response rating (0 to 100), Cupgrass, Woolly (woolly cupgrass; Postemergence, 31 g ai/ha): 0
Plant response rating (0 to 100), Cupgrass, Woolly (woolly cupgrass; Postemergence, 62 g ai/ha): 0
Plant response rating, Cupgrass, Woolly (woolly cupgrass; [4]): 40
Plant response rating, Cupgrass, Woolly (woolly cupgrass; [5]): 50
Plant response rating, Cupgrass, Woolly (woolly cupgrass; [6]): 0
Cupgrass, Woolly plant response rating (woolly cupgrass; [7]): 100
Goosegrass plant response rating (Goosegrass; [2]): 75
Goosegrass plant response rating (Goosegrass; [3]): 100
Plant response rating (0 to 100), Goosegrass (Goosegrass; Postemergence, 31 g ai/ha): 0
Plant response rating (0 to 100), Goosegrass (Goosegrass; Postemergence, 62 g ai/ha): 0
Plant response rating, Goosegrass (Goosegrass; [4]): 40
Plant response rating, Goosegrass (Goosegrass; [5]): 50
Plant response rating, Goosegrass (Goosegrass; [6]): 70
Goosegrass plant response rating (Goosegrass; [7]): 100
Foxtail, Green plant response rating (green foxtail; [2]): 85
Foxtail, Green plant response rating (green foxtail; [3]): 100
Plant response rating (0 to 100), Foxtail, Green (green foxtail; Postemergence, 31 g ai/ha): 0
Plant response rating (0 to 100), Foxtail, Green (green foxtail; Postemergence, 62 g ai/ha): 60
Plant response rating, Foxtail, Green (green foxtail; [4]): 70
Plant response rating, Foxtail, Green (green foxtail; [5]): 85
Plant response rating, Foxtail, Green (green foxtail; [6]): 65
Foxtail, Green plant response rating (green foxtail; [7]): 100
Nightshade plant response rating (eastern black nightshade; [2]): 50
Nightshade plant response rating (eastern black nightshade; [3]): 50
Plant response rating, Nightshade (eastern black nightshade; [6]): 40
Nightshade plant response rating (eastern black nightshade; [7]): 100
Plant response rating, Sedge, Umbrella (umbrella sedge; [10]): 90
Plant response rating, Sedge, Umbrella (umbrella sedge; [11]): 100
Plant response rating, Ducksalad (duck salad; [10]): 90
Plant response rating, Ducksalad (duck salad; [11]): 100
Ragweed plant response rating (common ragweed; [2]): 50
Ragweed plant response rating (common ragweed; [3]): 100
Plant response rating (0 to 100), Ragweed (common ragweed; Postemergence, 31 g ai/ha): 0
Plant response rating (0 to 100), Ragweed (common ragweed; Postemergence, 62 g ai/ha): 40
Plant response rating, Ragweed (common ragweed; [4]): 45
Plant response rating, Ragweed (common ragweed; [5]): 50
Plant response rating, Ragweed (common ragweed; [6]): 50
Ragweed plant response rating (common ragweed; [7]): 100
Oat, Wild plant response rating (wild oat; [2]): 70
Oat, Wild plant response rating (wild oat; [3]): 85
Plant response rating (0 to 100), Oat, Wild (wild oat; Postemergence, 31 g ai/ha): 0
Plant response rating (0 to 100), Oat, Wild (wild oat; Postemergence, 62 g ai/ha): 35
Plant response rating, Oat, Wild (wild oat; [4]): 40
Plant response rating, Oat, Wild (wild oat; [5]): 50
Plant response rating, Oat, Wild (wild oat; [6]): 70
Oat, Wild plant response rating (wild oat; [7]): 90
Nutsedge, Yellow plant response rating (yellow nutsedge; [2]): 75
Nutsedge, Yellow plant response rating (yellow nutsedge; [3]): 90
Plant response rating (0 to 100), Nutsedge, Yellow (yellow nutsedge; Postemergence, 31 g ai/ha): 0
Plant response rating (0 to 100), Nutsedge, Yellow (yellow nutsedge; Postemergence, 62 g ai/ha): 0
Plant response rating, Nutsedge, Yellow (yellow nutsedge; [4]): 0
Plant response rating, Nutsedge, Yellow (yellow nutsedge; [5]): 10
Plant response rating, Nutsedge, Yellow (yellow nutsedge; [6]): 0
Nutsedge, Yellow plant response rating (yellow nutsedge; [7]): 100
Plant response rating, Pigweed (redroot pigweed; Postemergence, 125 g ai/ha): 30
Pigweed plant response rating (redroot pigweed; [8]): 70
Pigweed plant response rating (redroot pigweed; [9]): 90
Plant response rating, Pigweed (redroot pigweed; Preemergence, 500 g ai/ha): 100
